Data as given in ChEMBL document CHEMBL3639213, “2,5-disubstituted piperidine orexin receptor antagonists” (2014).

Target: T1, Orexin/Hypocretin receptor type 1 (Rattus norvegicus, UniProt P56718)
T1 sequence (P56718 whole entry): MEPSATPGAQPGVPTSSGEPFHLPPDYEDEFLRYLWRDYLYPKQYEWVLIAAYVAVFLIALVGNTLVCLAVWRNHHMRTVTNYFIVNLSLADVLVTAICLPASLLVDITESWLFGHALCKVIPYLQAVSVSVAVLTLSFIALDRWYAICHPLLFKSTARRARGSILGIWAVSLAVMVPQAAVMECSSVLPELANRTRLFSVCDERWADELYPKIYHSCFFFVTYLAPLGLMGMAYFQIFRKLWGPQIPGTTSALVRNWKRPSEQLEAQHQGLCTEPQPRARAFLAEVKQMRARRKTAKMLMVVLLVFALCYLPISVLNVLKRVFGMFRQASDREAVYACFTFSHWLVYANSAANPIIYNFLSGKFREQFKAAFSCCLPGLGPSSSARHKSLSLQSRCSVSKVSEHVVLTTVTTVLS
Experiment: Radioligand Binding Assay: Compound potency can be assessed by a radioligand binding assay (described in Bergman et. al. Bioorg. Med. Chem. Lett. 2008, 18, 1425-1430) in which the inhibition constant (Ki) is determined in membranes prepared from CHO cells expressing either the orexin-1 (OX1) or orexin-2 (OX2) receptor.
Format: cell membranes

Ki [µM]	SMILES
1.3	C[C@@H]1CC[C@@H](Oc2cccc3ocnc23)CN1C(=O)c1ccccc1-n1nccn1
0.00325	Cc1ccc(-n2nccn2)c(C(=O)N2C[C@H](Nc3nccc4ccccc34)CC[C@H]2C)c1

SMILES	Ki [µM]
C[C@@H]1CC[C@@H](Oc2ccnc3c(F)cccc23)CN1C(=O)c1ccccc1-n1nccn1	0.56
